# From patent US8802597B2, “Herbicidal pyrimidines” (E I du Pont de Nemours and Company, priority 2003, dated 2014)
# Experiments:
# Assay type in all cases: in vivo
# [1] = system: morningglory (Ipomoea coccinea); experiment: Test B pre/postemergence
# Outline: (§1)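 Pre: compound (non-phytotoxic solvent + surfactant) applied to freshly planted seeds. Post: same formulation sprayed on 2–18 cm plants, 1- to 4-leaf. Readout: visual control rating 0–100 vs controls, 13–15 d, greenhouse.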
# [2] = system: giant foxtail (Setaria faberii); experiment: Test B pre/postemergence
# Outline: as §1
# [3] = system: lambsquarters (Chenopodium album); experiment: Test B pre/postemergence
# Outline: as §1
# [4] = system: barnyardgrass (Echinochloa crus-galli); experiment: Test B pre/postemergence
# Outline: as §1
# [5] = system: cocklebur (Xanthium strumarium); experiment: Test B pre/postemergence
# Outline: as §1
# [6] = system: pigweed (Amaranthus retroflexus); experiment: Test B pre/postemergence
# Outline: as §1
# [7] = system: corn (Zea mays); experiment: Test B pre/postemergence
# Outline: as §1
# [8] = system: velvetleaf (Abutilon theophrasti); experiment: Test B pre/postemergence
# Outline: as §1
# [9] = system: wheat (Triticum aestivum); experiment: Test B pre/postemergence
# Outline: as §1
# [10] = system: crabgrass (Digitaria sanguinalis); experiment: Test B pre/postemergence
# Outline: as §1
# [11] = system: Surinam grass (Brachiaria decumbens); experiment: Test B pre/postemergence
# Outline: as §1
# [12] = system: blackgrass (Alopecurus myosuroides); experiment: Test B postemergence; details: for Blackgrass plant response rating: 125 g ai/ha, scale 0 to 100 (0 no effect, 100 complete control); for Plant response rating, Blackgrass: 500 g ai/ha, scale 0 to 100
# Outline: as §1
# [13] = system: wild oat (Avena fatua); experiment: Test B postemergence; details: for Oat, Wild plant response rating: 125 g ai/ha, scale 0 to 100 (0 no effect, 100 complete control); for Plant response rating, Oat, Wild: 500 g ai/ha, scale 0 to 100
# Outline: as §1
# [14] = system: umbrella sedge (Cyperus difformis); experiment: Test B flooded paddy test; details: Flood, 1000 g ai/ha; scale 0 to 100
# Outline: (§2)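 Plants were grown to the 2-leaf stage before treatment, then kept in a greenhouse for 13 to 15 days. Injury was rated visually against untreated controls on a 0 to 100 scale, where 0 is no effect and 100 is complete control.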
# [15] = system: rice (Oryza sativa); experiment: Test B flooded paddy test; details: Flood, 1000 g ai/ha; scale 0 to 100
# Outline: as §2
# [16] = system: barnyardgrass (Echinochloa crus-galli); experiment: Test B flooded paddy test; details: Flood, 1000 g ai/ha; scale 0 (no effect) to 100 (complete control)
# Outline: as §2
# [17] = system: duck salad (Heteranthera limosa); experiment: Test B flooded paddy test; details: Flood, 1000 g ai/ha; scale 0 to 100
# Outline: as §2
# [18] = Postemergence, 125 g ai/ha, scale 0 to 100 (0 no effect, 100 complete control)
# [19] = Postemergence, 500 g ai/ha, scale 0 to 100
# [20] = Preemergence, 125 g ai/ha, scale 0 to 100 (0 no effect, 100 complete control)
# [21] = Preemergence, 500 g ai/ha, scale 0 to 100 (0 no effect, 100 complete control)
structure (smiles),measurement,setting,value
CC(C)COC(=O)c1nc(C2CC2)nc(N)c1Br [Compound 17],Morningglory plant response rating,[1]; [18],100
same,"Plant response rating, Morningglory",[1]; [19],100
same,"Plant response rating, Morningglory",[1]; [20],100
same,Morningglory plant response rating,[1]; [21],100
same,"Foxtail, Giant plant response rating",[2]; [18],10
same,"Plant response rating, Foxtail, Giant",[2]; [19],70
same,"Plant response rating, Foxtail, Giant",[2]; [20],20
same,"Foxtail, Giant plant response rating",[2]; [21],70
same,Lambsquarters plant response rating,[3]; [18],100
same,"Plant response rating, Lambsquarters",[3]; [19],100
same,"Plant response rating, Lambsquarters",[3]; [20],90
same,Lambsquarters plant response rating,[3]; [21],100
same,Barnyardgrass plant response rating,[4]; [18],20
same,"Plant response rating, Barnyardgrass",[4]; [19],90
same,"Plant response rating, Barnyardgrass",[4]; [20],20
same,Barnyardgrass plant response rating,[4]; [21],80
same,Cocklebur plant response rating,[5]; [18],100
same,"Plant response rating, Cocklebur",[5]; [19],100
same,"Plant response rating, Cocklebur",[5]; [20],80
same,Cocklebur plant response rating,[5]; [21],90
same,Pigweed plant response rating,[6]; [18],70
same,"Plant response rating, Pigweed",[6]; [19],90
same,"Plant response rating, Pigweed",[6]; [20],80
same,Pigweed plant response rating,[6]; [21],100
same,Corn plant response rating,[7]; [18],0
same,"Plant response rating, Corn",[7]; [19],80
same,"Plant response rating, Corn",[7]; [20],0
same,Corn plant response rating,[7]; [21],60
same,Velvetleaf plant response rating,[8]; [18],60
same,"Plant response rating, Velvetleaf",[8]; [19],100
same,"Plant response rating, Velvetleaf",[8]; [20],70
same,Velvetleaf plant response rating,[8]; [21],90
same,Wheat plant response rating,[9]; [18],0
same,"Plant response rating, Wheat",[9]; [19],60
same,"Plant response rating, Wheat",[9]; [20],40
same,Wheat plant response rating,[9]; [21],60
same,Crabgrass plant response rating,[10]; [18],20
same,"Plant response rating, Crabgrass",[10]; [19],50
same,"Plant response rating, Crabgrass",[10]; [20],70
same,Crabgrass plant response rating,[10]; [21],100
same,Surinam Grass plant response rating,[11]; [18],30
same,"Plant response rating, Surinam Grass",[11]; [19],80
same,"Plant response rating, Surinam Grass",[11]; [20],30
same,Surinam Grass plant response rating,[11]; [21],90
same,Blackgrass plant response rating,[12],0
same,"Plant response rating, Blackgrass",[12],70
same,"Oat, Wild plant response rating",[13],0
same,"Plant response rating, Oat, Wild",[13],50
same,"Plant response rating, Sedge, Umbrella",[14],50
same,"Plant response rating, Rice",[15],50
same,"Plant response rating, Barnyardgrass",[16],80
same,"Plant response rating, Ducksalad",[17],90
CCOC(=O)C(OC(C)=O)c1nc(C2CC2)nc(N)c1Br (centres unmarked) [Compound 47],Morningglory plant response rating,[1]; [18],80
same,"Plant response rating, Morningglory",[1]; [19],90
same,"Plant response rating, Morningglory",[1]; [20],80
same,Morningglory plant response rating,[1]; [21],100
same,"Foxtail, Giant plant response rating",[2]; [18],10
same,"Plant response rating, Foxtail, Giant",[2]; [19],50
same,"Plant response rating, Foxtail, Giant",[2]; [20],20
same,"Foxtail, Giant plant response rating",[2]; [21],40
same,Lambsquarters plant response rating,[3]; [18],80
same,"Plant response rating, Lambsquarters",[3]; [19],90
same,"Plant response rating, Lambsquarters",[3]; [20],90
same,Lambsquarters plant response rating,[3]; [21],100
same,Barnyardgrass plant response rating,[4]; [18],20
same,"Plant response rating, Barnyardgrass",[4]; [19],60
same,"Plant response rating, Barnyardgrass",[4]; [20],0
same,Barnyardgrass plant response rating,[4]; [21],40
same,Cocklebur plant response rating,[5]; [18],90
same,"Plant response rating, Cocklebur",[5]; [19],100
same,"Plant response rating, Cocklebur",[5]; [20],80
same,Cocklebur plant response rating,[5]; [21],90
same,Pigweed plant response rating,[6]; [18],70
same,"Plant response rating, Pigweed",[6]; [19],80
same,"Plant response rating, Pigweed",[6]; [20],80
same,Pigweed plant response rating,[6]; [21],90
same,Corn plant response rating,[7]; [18],0
same,"Plant response rating, Corn",[7]; [19],0
same,"Plant response rating, Corn",[7]; [20],0
same,Corn plant response rating,[7]; [21],30
same,Velvetleaf plant response rating,[8]; [18],20
same,"Plant response rating, Velvetleaf",[8]; [19],40
same,"Plant response rating, Velvetleaf",[8]; [20],60
same,Velvetleaf plant response rating,[8]; [21],90
same,Wheat plant response rating,[9]; [18],0
same,"Plant response rating, Wheat",[9]; [19],0
same,"Plant response rating, Wheat",[9]; [20],20
same,"Plant response rating, Wheat",[9]; [21],50
same,Crabgrass plant response rating,[10]; [18],10
same,"Plant response rating, Crabgrass",[10]; [19],60
same,"Plant response rating, Crabgrass",[10]; [20],20
same,Crabgrass plant response rating,[10]; [21],90
same,Surinam Grass plant response rating,[11]; [18],0
same,"Plant response rating, Surinam Grass",[11]; [19],20
same,"Plant response rating, Surinam Grass",[11]; [20],0
same,Surinam Grass plant response rating,[11]; [21],20
same,Blackgrass plant response rating,[12],0
same,"Plant response rating, Blackgrass",[12],0
same,"Oat, Wild plant response rating",[13],0
same,"Plant response rating, Oat, Wild",[13],0
same,"Plant response rating, Sedge, Umbrella",[14],70
same,"Plant response rating, Rice",[15],0
same,"Plant response rating, Barnyardgrass",[16],0
same,"Plant response rating, Ducksalad",[17],80
